Source: patent US8518715B2, “Bifunctional polyazamacrocyclic chelating agents” (Nordion (Canada) Inc., priority 2006, dated 2013)

What was measured:
Type in all cases: physicochemical
[1] = Kinetics of complexation of polyazamacrocyclic ligand with 90Y3+; settings: ^90Y^3+; for percent complexation of metal ion (in words): ligand:metal 100:1; for initial rate / kinetics of complexation (in words): ligand:metal 100:1, room temperature
Experimental: (§1) A polyazamacrocyclic ligand ((L)-p-NO2-Bz-PCTA; (D)-p-NO2-Bz-PCTA; (L)-p-NCS-Bz-PCTA; (±)-p-NO2-Bz-DOTA, (±)-NPCTA, (±)-OXO and (L)-p-NO2-Bz-OXO) was combined with a metal ion (^90Y^3+, ^111In^3+, ^177Lu^3+) at room temperature in buffer at a molar ratio of the ligand to the metal ion of 100:1 for kinetic studies, 200:1 for stability studies or at values ranging from 2:1 to 200:1 for the molar ratio studies.
(§2) Complexation studies involving ^90Y^3+ and ^111In^3+ were conducted with 50-100 mM sodium acetate buffer, pH 5.0-7.0, while complexation studies involving ^177Lu^3+ were performed with 50 mM-100 mM sodium acetate buffer, pH 4-5.
(§3) 1 μL samples were taken at 10 minute intervals for kinetic studies, after 60 minutes in experiments studying the effect of the value of [ligand]/[metal ion] on the % complexation of the ligand, and at spaced intervals of 1-3 days for experiments studying the stability of complexes formed using the ligand of the present invention. […] The silica gel paper is cut in half and each half is measured in a gamma well counter. […] Each result shown in FIGS. 4-9 is the average of three separate trials.

[2] = Kinetics of complexation of polyazamacrocyclic ligand with 111In3+; settings: ^111In^3+; for initial rate / kinetics of complexation (in words): ligand:metal 100:1, room temperature
Experimental: as §1, §2, §3

[3] = Kinetics of complexation of polyazamacrocyclic ligand with 177Lu3+; settings: ^177Lu^3+; for percent complexation of metal ion (in words) / time after which the maximum percent of complexation was observed: ligand:metal 100:1; for percent complexation after 10 minutes: ligand:metal 100:1, 10 minutes; for initial rate / kinetics of complexation (in words): ligand:metal 100:1, room temperature
Experimental: as §1, §2, §3

[4] = Effect of [ligand]/[177Lu3+] on the percent complexation
Experimental: as §1, §2, §3

[5] = Effect of [ligand]/[111In3+] on the percent complexation
Experimental: as §1, §2, §3

[6] = Effect of [ligand]/[90Y3+] on the percent complexation
Experimental: as §1, §2, §3

[7] = molar ratio of ligand/^111In^3+ of 5:1, after 60 minutes

Row | SMILES | percent complexation of metal ion (in words) [1] | initial rate / kinetics of complexation (in words) [2] | percent complexation of metal ion (in words) [3] | percent complexation after 10 minutes [3] [%] | percent complexation [5, 7] [%] | initial rate / kinetics of complexation (in words) [1] | time after which the maximum percent of complexation was observed [3] [min] | initial rate / kinetics of complexation (in words) [3] | other results
1 | O=C(O)CN1CCOCCN(CC(=O)O)CCN(CC(=O)O)CC1 (racemic) [(±)-OXO, 2,2′,2″-(1-oxa-4,7,10-triazacyclododecane-4,7,10-triyl)triacetic acid] | highest | fastest | highest | ~95 |  |  |  |  | 
2 | COc1ccc([N+](=O)[O-])cc1C(C(=O)O)N1CCN(CC(=O)O)Cc2cccc(n2)CN(CC(=O)O)CC1 (racemic) [(±)-NPCTA, 2,2′-(6-(carboxy(2-methoxy-5-nitrophenyl)methyl)-3,6,9,15-tetraazabicyclo[9.3.1]pentadeca-1(15),11,13-triene-3,9-diyl)diacetic acid] |  | relatively slower |  |  | ~76 | relatively slower | 50 | relatively slower | percent complexation ([4]; molar ratio of ligand/^177Lu^3+ of greater than 20:1, after 60 minutes): < 95%; percent complexation ([6]; molar ratio of ligand/^90Y^3+ of greater than 20:1, after 60 minutes): < 90%
3 | O=C(O)CN1CCN(CC(=O)O)C[C@@H](Cc2ccc([N+](=O)[O-])cc2)N(CC(=O)O)Cc2cccc(n2)C1 [(D)-p-NO2-Bz-PCTA, 2,2′,2″-((4R)-4-(4-nitrobenzyl)-3,6,9,15-tetraazabicyclo[9.3.1]pentadeca-1(15),11,13-triene-3,6,9-triyl)triacetic acid] |  |  |  | ~91 |  |  |  |  | percent complexation ([5]; molar ratio of ligand/^111In^3+ of 10:1, after 60 minutes): ~95%; percent complexation ([6]; molar ratio of ligand/^90Y^3+ of 10:1, after 60 minutes): ~95%
4 | O=C(O)CN1CCN(CC(=O)O)CCN(CC(=O)O)C(Cc2ccc([N+](=O)[O-])cc2)CN(CC(=O)O)CC1 (racemic) [(±)-p-NO2-Bz-DOTA, 2,2′,2″,2′″-(2-(4-nitrobenzyl)-1,4,7,10-tetraazacyclododecane-1,4,7,10-tetrayl)tetraacetic acid] | highest |  | highest | ~95 | ~94 |  | 40 |  | percent complexation ([5]; molar ratio of ligand/^111In^3+ of greater than 20:1, after 60 minutes): ≤ 95%; maximum values of complexation after 40 minutes ([2]; ligand:metal 100:1, after 40 minutes): ~89%
5 | O=C(O)CN1CCOCCN(CC(=O)O)[C@@H](Cc2ccc([N+](=O)[O-])cc2)CN(CC(=O)O)CC1 [(L)-p-NO2-Bz-OXO, (S)-2,2′,2″-(5-(4-nitrobenzyl)-1-oxa-4,7,10-triazacyclododecane-4,7,10-triyl)triacetic acid] | highest | fastest | highest |  |  |  |  | fastest | 
6 | O=C(O)CN1CCN(CC(=O)O)C[C@H](Cc2ccc([N+](=O)[O-])cc2)N(CC(=O)O)Cc2cccc(n2)C1 [(L)-p-NO2-Bz-PCTA, 2,2′,2″-((4S)-4-(4-nitrobenzyl)-3,6,9,15-tetraazabicyclo[9.3.1]pentadeca-1(15),11,13-triene-3,6,9-triyl)triacetic acid] | highest |  | highest |  |  | fastest |  | fastest | percent complexation ([4]; molar ratio of ligand/^177Lu^3+ of 5:1, after 60 minutes): ~95%; percent complexation after 10 minutes ([1]; ligand:metal 100:1, 10 minutes): 95%; percent complexation after 10 minutes ([2]; ligand:metal 100:1, 10 minutes): ~95%
